Test results as given in patent US7202265B2, “Indolinone combinatorial libraries and related products and methods for the treatment of disease” (Sugen, Inc., priority 1997, dated 2007).

Assays:
FLK-1 receptor = target: T1, FLK-1 receptor (Mus musculus, UniProt P35918); experiment: FLK-1 ELISA (catalytic activity of the FLK-1 receptor in FLK-1/NIH3T3 cells); type: cell-based; parameters: Flk Kinase % Inhibition: concentration or dose not given beside the values
T1 construct: expressed in transfected cells; host or cells: NIH3T3 C7#3 (FLK-1/NIH3T3)
T1 sequence (P35918 20-1345): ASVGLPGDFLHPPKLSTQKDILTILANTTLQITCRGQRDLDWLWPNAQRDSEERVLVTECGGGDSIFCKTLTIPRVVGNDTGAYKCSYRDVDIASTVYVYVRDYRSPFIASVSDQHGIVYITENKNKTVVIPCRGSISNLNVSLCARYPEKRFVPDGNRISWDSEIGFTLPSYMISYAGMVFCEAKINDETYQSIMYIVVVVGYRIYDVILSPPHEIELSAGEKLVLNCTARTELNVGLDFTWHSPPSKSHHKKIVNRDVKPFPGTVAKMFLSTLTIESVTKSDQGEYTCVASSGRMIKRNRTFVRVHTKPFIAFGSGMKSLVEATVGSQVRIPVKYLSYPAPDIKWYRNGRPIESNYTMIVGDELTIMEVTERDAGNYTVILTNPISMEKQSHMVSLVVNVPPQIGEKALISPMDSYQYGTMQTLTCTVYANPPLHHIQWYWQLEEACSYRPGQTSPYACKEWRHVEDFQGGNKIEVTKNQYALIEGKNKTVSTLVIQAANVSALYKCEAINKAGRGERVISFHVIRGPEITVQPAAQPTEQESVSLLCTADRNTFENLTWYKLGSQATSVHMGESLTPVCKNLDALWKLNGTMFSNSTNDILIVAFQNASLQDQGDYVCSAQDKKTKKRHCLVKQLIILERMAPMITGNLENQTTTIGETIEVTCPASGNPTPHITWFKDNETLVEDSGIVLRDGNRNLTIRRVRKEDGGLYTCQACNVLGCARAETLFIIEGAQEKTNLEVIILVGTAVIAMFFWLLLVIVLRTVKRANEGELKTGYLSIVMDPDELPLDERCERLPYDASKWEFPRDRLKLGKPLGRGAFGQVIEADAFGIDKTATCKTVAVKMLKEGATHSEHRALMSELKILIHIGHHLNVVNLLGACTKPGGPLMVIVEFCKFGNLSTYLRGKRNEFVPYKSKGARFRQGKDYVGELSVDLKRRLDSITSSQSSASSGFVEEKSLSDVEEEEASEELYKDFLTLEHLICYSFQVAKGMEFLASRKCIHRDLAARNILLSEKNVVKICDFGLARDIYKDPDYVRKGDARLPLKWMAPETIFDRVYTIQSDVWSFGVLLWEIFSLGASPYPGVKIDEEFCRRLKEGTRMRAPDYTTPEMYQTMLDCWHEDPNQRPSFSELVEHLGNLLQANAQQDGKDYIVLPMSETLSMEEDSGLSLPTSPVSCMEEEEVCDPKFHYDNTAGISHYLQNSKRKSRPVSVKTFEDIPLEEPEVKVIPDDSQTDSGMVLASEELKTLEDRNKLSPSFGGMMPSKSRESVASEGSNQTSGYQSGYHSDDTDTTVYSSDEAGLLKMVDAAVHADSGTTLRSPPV

[1] = target: platelet derived growth factor protein kinase (PDGFR) (Homo sapiens, UniProt P09619); experiment: PDGF-R ELISA; type: cell-based; parameters: concentration or dose not given beside the values
platelet derived growth factor protein kinase (PDGFR), sequence (P09619 33-1106): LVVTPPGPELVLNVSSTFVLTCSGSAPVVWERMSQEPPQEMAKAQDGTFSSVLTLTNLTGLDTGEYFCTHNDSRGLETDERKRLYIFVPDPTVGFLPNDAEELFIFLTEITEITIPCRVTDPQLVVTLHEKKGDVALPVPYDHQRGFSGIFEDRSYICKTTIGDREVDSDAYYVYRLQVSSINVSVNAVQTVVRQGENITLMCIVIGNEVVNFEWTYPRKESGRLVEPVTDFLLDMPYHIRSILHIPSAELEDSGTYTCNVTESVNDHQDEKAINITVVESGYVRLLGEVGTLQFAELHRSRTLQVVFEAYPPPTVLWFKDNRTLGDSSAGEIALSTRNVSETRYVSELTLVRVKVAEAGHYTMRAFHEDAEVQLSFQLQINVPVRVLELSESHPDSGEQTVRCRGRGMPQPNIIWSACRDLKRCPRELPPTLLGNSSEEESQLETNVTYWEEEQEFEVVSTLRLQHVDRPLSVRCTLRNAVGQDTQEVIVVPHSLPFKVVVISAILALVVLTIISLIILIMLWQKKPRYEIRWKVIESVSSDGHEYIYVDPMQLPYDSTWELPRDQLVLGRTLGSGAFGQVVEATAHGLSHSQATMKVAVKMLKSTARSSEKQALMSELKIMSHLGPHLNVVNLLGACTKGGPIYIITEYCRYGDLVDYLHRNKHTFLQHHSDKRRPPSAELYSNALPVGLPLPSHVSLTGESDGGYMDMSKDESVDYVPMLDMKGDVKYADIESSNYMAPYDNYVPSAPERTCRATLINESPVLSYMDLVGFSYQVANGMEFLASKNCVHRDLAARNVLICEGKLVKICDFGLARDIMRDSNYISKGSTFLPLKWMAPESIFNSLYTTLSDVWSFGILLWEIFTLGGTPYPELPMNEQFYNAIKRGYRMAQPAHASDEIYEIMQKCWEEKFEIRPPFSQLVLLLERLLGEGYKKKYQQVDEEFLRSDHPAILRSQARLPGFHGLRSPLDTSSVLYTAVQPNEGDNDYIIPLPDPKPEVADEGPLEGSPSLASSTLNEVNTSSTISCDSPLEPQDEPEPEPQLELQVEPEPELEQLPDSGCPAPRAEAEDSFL
Excerpt: A PDGF-R ELISA is described in International Patent Publication No. WO 96/40116, published Dec. 19, 1996 by Tang et al.

EGFR = target: T2, EGFR (Homo sapiens, UniProt P00533); experiment: EGFR ELISA assay (in vitro kinase activity, A431 cell lysate); type: biochemical; parameters: concentration or dose not given beside the values
T2 construct: Add 7 ug A431 cell lysate per well (EGFR source); endogenous in cells; host or cells: A431 cells (lysate)
T2 sequence (P00533 25-1210): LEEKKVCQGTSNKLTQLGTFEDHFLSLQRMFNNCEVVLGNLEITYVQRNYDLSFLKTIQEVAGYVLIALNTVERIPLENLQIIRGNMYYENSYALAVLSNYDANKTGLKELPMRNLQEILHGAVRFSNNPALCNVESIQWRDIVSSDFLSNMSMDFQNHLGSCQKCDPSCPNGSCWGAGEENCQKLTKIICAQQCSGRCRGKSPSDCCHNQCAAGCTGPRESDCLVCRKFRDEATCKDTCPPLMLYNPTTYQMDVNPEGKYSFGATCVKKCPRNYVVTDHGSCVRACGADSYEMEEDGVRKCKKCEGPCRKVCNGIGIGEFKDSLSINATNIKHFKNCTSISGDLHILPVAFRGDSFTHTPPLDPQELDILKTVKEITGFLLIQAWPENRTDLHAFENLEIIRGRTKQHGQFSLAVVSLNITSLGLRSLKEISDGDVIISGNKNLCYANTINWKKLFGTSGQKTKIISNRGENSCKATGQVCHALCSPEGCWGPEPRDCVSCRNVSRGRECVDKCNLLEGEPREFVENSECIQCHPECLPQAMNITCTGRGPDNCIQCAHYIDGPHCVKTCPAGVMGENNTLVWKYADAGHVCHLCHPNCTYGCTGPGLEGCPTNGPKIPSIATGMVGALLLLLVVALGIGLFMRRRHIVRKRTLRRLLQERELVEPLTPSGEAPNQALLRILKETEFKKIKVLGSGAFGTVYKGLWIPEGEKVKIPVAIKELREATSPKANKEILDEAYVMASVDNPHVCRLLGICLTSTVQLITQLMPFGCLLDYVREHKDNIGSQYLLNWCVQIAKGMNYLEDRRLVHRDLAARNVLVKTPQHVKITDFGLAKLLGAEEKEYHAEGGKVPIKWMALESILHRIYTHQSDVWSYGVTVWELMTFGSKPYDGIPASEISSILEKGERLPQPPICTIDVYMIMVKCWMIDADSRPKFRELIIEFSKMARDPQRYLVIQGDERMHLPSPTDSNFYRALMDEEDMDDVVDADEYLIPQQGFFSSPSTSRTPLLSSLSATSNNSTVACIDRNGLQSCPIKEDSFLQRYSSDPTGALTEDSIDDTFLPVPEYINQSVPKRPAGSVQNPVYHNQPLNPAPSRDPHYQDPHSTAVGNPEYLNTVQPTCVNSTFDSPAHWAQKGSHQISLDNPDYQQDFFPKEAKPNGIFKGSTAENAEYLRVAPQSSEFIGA
Experimental: To provide a consistent method for measuring the in vitro kinase activity of the EGFR in an Enzyme-linked immunosorbent assay (Elisa).
Scope. The following protocol describes the procedures used to analyze protein tyrosine kinase activity on the EGFR in an Elisa. The procedure also describes the protocol for the initial screening of drugs for inhibition or activation of protein tyrosine kinase activity.
1. Coat Corning 96-well elisa plates with 0.5 ug per well 05-101 antibody. • Bring final volume to 100 ul per well with PBS. • Coat plates overnight at […].
2. Remove unbound 05-101 from wells by inverting plate to remove liquid. • Wash 1× with distilled H2O by filling wells • Pat the plate on a paper towel to remove excess liquid.
3. Block plates with 5% milk in PBS. • 150 ul per well. • Incubate plate 30 minutes while shaking on a microtiter plate shaker.
4. Wash plate 3× with dionized water, then once with TBST
5. Add 7 ug A431 cell lysate per well (EGFR source). • Add PBS to final volume of 100 ul per well • Incubate 30 minutes while shaking.
6. Wash as described in step 4.
8. […] It is best to add the ATP/MnCl2 with an 12 channel pipettor 1 row at a time leaving 20 seconds between each row so that the reaction may be stopped with EDTA exactly 5 minutes later (this depends on the number of plates being phosphorylated in one batch). Shake between each addition.
9. After 5 minutes, to stop reaction, add 16.5 ul of 200 mM EDTA pH 8.0 for 20 mM final in well, shaking continuously between each addition. This is done using the same timing method as above. After last row has received EDTA, shake plate an additional minute.
10. Wash 4× with deionized water, twice with TBST.
11. Add rabbit polyclonal anti-phosphotyrosine serum. • Dilute 1:3000 in TBST. • Add 100 ul per well. • Incubate 30–45 minutes while shaking.
12. Wash as described above in step 4.
13. Add BioSource anti-rabbit peroxidase conjugate antibody. • Dilute 1:2000 in TBST. • Add 100 ul per well. • Incubate 30 minutes while shaking.
14. Wash as described in step 4.
15. Add 100 ul of ABTS/H2O2 solution to well. • Incubate 5 to 10 minutes while shaking. • Remove bubbles
16. If necessary stop reaction with the addition of 100 ul of 0.2M HCl per well
17. Read assay on Dynatech MR7000 elisa reader. • Test Filter: 410 nM • Reference Filter: 630 nM

human MET = experiment: MET biochemical kinase assay; parameters: concentration or dose not given beside the values
Method in brief: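 MET captured from cell lysates onto plates coated with goat anti-rabbit Fc plus rabbit polyclonal anti-MET cytoplasmic-domain antibody; after washing, compounds added with kinase buffer containing ATP and divalent metal ions. Receptor tyrosine phosphorylation detected by HRP-conjugated anti-phosphotyrosine antibody, TMB colorimetric read-out.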

SMILES | Flk Kinase % Inhibition (FLK-1 receptor) [%] | PDGF Kinase % Inhibition [1] [%] | Biochem EGFR % Inhibition (EGFR) [%] | Met Kinase % Inhibition (human MET) [%]
O=C1Nc2ccc(I)cc2C1=Cc1cc2c3c(c1O)CCCN3CCC2 [10724/B05] | −2.2 | 12.6 | 21.2 | 45.6
Cc1ccc(C=C2C(=O)Nc3c(Br)cc(Br)cc32)o1 [10725/A04] | −8.6 | −3.2 | 26.2 | 55.3
O=C1Nc2ccc(I)cc2C1=Cc1ccc([N+](=O)[O-])c(O)c1 [10724/B04] | −20.5 | 42.5 | 50.2 | 81.2
CNS(=O)(=O)c1ccc2c(c1)C(=Cc1c(OC)ccc3ccccc13)C(=O)N2 [10729/D02] | – | – | 5.7 | –
CNS(=O)(=O)c1ccc2c(c1)C(=Cc1cccc(C#N)c1)C(=O)N2 [10727/D08] | – | 5.0 | – | 8.5
O=C1Nc2ccc(I)cc2C1=Cc1ccc(Cl)s1 [10721/B07] | 11.2 | – | 47.6 | 47.1
O=C1Nc2ccc(I)cc2C1=Cc1csc([N+](=O)[O-])c1 [10722/B09] | 8.7 | 14.6 | 7.8 | 59.7
Cc1ccc(C=C2C(=O)Nc3ccc(I)cc32)o1 [10725/B04] | 1.1 | 9.3 | 76.9 | 90.4
CCOC(=O)CCc1c(C(=O)OCC)[nH]c(C=C2C(=O)Nc3ccc(I)cc32)c1CC(=O)OCC [10718/B05] | 11.5 | – | 56.3 | 76.0
O=C1Nc2ccc(I)cc2C1=Cc1cc([N+](=O)[O-])cc(CCl)c1O [10721/B06] | 3.4 | – | 71.5 | 92.4
Cc1cc(C=C2C(=O)Nc3ccc(I)cc32)cc(C)c1O [10722/B07] | 6.6 | 20.9 | 6.2 | 48.2
Cn1cc(Cl)c(C=C2C(=O)Nc3ccc(I)cc32)n1 [10721/B03] | 19.9 | – | 38.9 | 70.8
O=C1Nc2ccc(I)cc2C1=Cc1ccc2c(c1)Cc1ccccc1-2 [10728/B06] | 4.7 | 7.6 | 38.1 | 56.0
Cc1cc(C=C2C(=O)Nc3ccc(I)cc32)sc1C [10721/B04] | 13.8 | – | 79.3 | 93.1
CNS(=O)(=O)c1ccc2c(c1)C(=Cc1ccc(F)cc1C(F)(F)F)C(=O)N2 [10719/D11] | −8.7 | – | −11.1 | 12.8
CN(C)c1ccc(C=C2C(=O)Nc3ccc(I)cc32)c2ccccc12 [10724/B02] | −6.2 | −21.5 | 34.9 | 48.8
COc1c(I)cc(C=C2C(=O)Nc3ccc(S(=O)(=O)N4CCOCC4)cc32)cc1C(C)(C)C [10732/F11] | 14.1 | – | – | 65.1
Cn1c(C=C2C(=O)Nc3ccc(I)cc32)nc2ccccc21 [10721/B02] | 19.5 | – | 58.6 | 82.6
